Read-outs that look alike come from different tables or passages of the source.
Assays:
Assay type in all cases: cell-based
[1] = tested on: MV-4-11 cells; assay: AML cell viability, CellTiter-Glo, MV-4-11 cells; details: Homo sapiens, MV4-11, CellTiter-Glo, read-out: Cell viability classification
Procedure: MV4-11 cells were obtained from ATCC and grown in IMDM supplemented with 10% FBS. The cells were maintained at 37° C. under 5% CO2. […] The luminescence was normalized to that of DMSO-treated samples. IC50 values were obtained using three-parameter non-linear regressions using Prism (GraphPad). […] Cell viability was measured using the CellTiter-Glo reagent after 44 hours of treatment. […] MV4-11 cells were obtained from ATCC and grown in IMDM supplemented with 10% FBS. The cells were maintained at 37° C. under 5% CO2. […] Cell viability was measured using the CellTiter-Glo reagent after 44 hours of treatment.

[2] = molecular target: GSPT1 (Homo sapiens, UniProt P15170+Q96SW2)
Chain of GSPT1 (P15170 whole entry): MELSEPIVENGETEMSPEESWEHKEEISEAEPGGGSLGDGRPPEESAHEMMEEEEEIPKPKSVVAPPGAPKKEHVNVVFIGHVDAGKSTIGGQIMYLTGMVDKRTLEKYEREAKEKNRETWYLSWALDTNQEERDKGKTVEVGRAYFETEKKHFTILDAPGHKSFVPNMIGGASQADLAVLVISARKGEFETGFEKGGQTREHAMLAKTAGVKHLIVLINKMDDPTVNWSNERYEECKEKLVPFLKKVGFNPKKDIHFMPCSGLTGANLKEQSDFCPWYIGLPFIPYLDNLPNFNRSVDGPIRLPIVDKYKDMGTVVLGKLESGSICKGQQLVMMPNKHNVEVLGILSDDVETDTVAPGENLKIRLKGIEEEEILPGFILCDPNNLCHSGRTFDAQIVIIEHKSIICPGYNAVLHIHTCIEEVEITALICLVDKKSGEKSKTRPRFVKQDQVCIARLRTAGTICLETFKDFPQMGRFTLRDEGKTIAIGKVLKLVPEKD
Chain of GSPT1 (Q96SW2 whole entry): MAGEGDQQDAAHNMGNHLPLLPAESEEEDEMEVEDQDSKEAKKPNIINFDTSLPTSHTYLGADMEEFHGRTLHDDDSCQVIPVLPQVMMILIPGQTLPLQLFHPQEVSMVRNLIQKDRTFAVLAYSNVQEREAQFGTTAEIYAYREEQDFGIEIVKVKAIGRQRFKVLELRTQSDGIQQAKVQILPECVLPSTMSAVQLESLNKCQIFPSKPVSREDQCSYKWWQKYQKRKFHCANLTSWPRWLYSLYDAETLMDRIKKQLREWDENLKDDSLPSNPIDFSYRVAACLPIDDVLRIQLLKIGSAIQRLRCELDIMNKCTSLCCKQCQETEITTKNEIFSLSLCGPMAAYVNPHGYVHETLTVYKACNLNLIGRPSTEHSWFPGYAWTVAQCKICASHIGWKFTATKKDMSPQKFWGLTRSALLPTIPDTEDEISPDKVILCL
Chain of GSPT1 (Q16531 whole entry partner): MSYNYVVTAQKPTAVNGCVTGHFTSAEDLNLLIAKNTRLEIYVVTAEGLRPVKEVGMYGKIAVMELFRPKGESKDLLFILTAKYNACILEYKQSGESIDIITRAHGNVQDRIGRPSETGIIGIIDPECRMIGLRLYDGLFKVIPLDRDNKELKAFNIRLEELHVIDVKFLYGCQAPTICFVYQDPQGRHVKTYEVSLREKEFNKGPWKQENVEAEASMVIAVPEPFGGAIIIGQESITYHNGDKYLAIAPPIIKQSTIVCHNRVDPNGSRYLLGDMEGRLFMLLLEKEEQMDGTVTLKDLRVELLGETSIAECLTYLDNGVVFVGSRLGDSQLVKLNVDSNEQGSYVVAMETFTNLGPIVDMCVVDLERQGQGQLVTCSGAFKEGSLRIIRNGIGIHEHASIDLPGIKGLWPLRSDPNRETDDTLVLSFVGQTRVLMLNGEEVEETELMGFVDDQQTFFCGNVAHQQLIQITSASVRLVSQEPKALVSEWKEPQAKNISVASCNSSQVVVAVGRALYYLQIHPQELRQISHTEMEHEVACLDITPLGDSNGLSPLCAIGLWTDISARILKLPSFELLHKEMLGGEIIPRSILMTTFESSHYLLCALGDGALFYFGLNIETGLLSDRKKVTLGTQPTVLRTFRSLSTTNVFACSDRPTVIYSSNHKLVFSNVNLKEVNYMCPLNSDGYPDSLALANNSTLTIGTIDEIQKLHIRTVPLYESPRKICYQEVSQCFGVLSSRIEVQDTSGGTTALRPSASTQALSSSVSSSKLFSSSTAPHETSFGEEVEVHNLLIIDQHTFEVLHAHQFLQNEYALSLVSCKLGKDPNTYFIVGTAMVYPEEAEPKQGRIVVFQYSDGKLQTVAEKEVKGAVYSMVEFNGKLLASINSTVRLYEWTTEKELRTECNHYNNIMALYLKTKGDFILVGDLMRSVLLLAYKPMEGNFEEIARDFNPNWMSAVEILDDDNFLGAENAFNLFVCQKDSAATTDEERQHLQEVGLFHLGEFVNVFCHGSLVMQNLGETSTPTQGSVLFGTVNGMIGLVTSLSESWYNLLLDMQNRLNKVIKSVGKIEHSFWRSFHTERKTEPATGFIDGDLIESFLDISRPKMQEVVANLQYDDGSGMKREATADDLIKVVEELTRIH
Procedure: GSPT1_HiBIT_HEK293 cells were culture in DMEM medium with 10% FBS under standard tissue culture conditions. […] GSPT1 level was determined in along with the Nano-Glo HiBiT Lytic Detection system [Promega N3050] with final concentration of 1×. The luminescence was normalized to that of DMSO-treated samples. DC50 values were obtained using three-parameter non-linear regressions using Prism (GraphPad).

[3] = tested on: NCI-H1155 cells; assay: NSCLC cell viability, CellTiter-Glo, NCI-H1155 cells; details: Homo sapiens; NCI-H1155 cells, CellTiter-Glo, 72 hours of treatment; read-out: Cell viability classification (NCI-H1155)
[4] = MV-4-11 cells, 44 hours of treatment, TABLE 1
[5] = DC50, GSPT1_HiBIT_HEK293 cells, 16 hours, Nano-Glo HiBiT Lytic Detection; read-out: GSPT1 degradation classification
[6] = read-out: GSPT1 degradation classification; DC50, GSPT1_HiBIT_HEK293 cells, 16 hours, Nano-Glo HiBiT Lytic Detection

DC50 [2, 5] [nM]	SMILES	IC50 [1, 4] [nM]	IC50 ([1]; TABLE 2, MV-4-11 cells assumed, 44 hours) [nM]	IC50 [3] [nM]	DC50 [2, 6] [nM]
–	O=C1CC[C@H](N2Cc3cc(C(=O)Nc4cncc5ccccc45)ccc3C2=O)C(=O)N1 (stereo in doubt) [Example 2, 2-(2,6-dioxopiperidin-3-yl)-N-(isoquinolin-4-yl)-1-oxoisoindoline-5-carboxamide]	100 to 1000	–	–	–
–	O=C1CCC(N2Cc3cc(C(=O)N4Cc5ccccc5C4)ccc3C2=O)C(=O)N1 (stereo not drawn) [Example 12, 3-(5-(isoindoline-2-carbonyl)-1-oxoisoindolin-2-yl)piperidine-2,6-dione]	< 100	–	–	–
–	COc1cc(F)c2c(c1)CCN2C(=O)c1ccc2c(c1)CN(C1CCC(=O)NC1=O)C2=O (stereo not drawn) [Example 64, 3-(5-(7-fluoro-5-methoxyindoline-1-carbonyl)-1-oxoisoindolin-2-yl)piperidine-2,6-dione]	–	< 100	–	–
100 to 300	O=C1CCC(N2Cc3cc(C(=O)N4CC5(CC(c6ccc(F)cc6)C5)C4)ccc3C2=O)C(=O)N1 (stereo not drawn) [Example 205, 3-(5-(6-(4-fluorophenyl)-2-azaspiro[3.3]heptane-2-carbonyl)-1-oxoisoindolin-2-yl)piperidine-2,6-dione]	–	–	10 to 100	–
> 1000	O=C1CCC(c2nc3ccc(C(=O)N4CC5(C=C(c6ccc(F)cc6)C5)C4)cc3o2)C(=O)N1 (stereo not drawn) [Example 206, 3-(6-(6-(4-fluorophenyl)-2-azaspiro[3.3]hept-5-ene-2-carbonyl)benzo[d]oxazol-2-yl)piperidine-2,6-dione]	–	–	> 1000	–
–	O=C1CCC(N2Cc3cc(C(=O)N4CC5(C=C(c6cccc(F)c6)C5)C4)ccc3C2=O)C(=O)N1 (stereo not drawn) [Example 207, 3-(5-(6-(3-fluorophenyl)-2-azaspiro[3.3]hept-5-ene-2-carbonyl)-1-oxoisoindolin-2-yl)piperidine-2,6-dione]	–	–	10 to 100	< 100
–	O=C1CCC(N2Cc3cc(C(=O)N4CC5(C=C(c6ccccc6F)C5)C4)ccc3C2=O)C(=O)N1 (stereo not drawn) [Example 208, 3-(5-(6-(2-fluorophenyl)-2-azaspiro[3.3]hept-5-ene-2-carbonyl)-1-oxoisoindolin-2-yl)piperidine-2,6-dione]	–	–	< 10	< 100
–	O=C1CCC(N2Cc3cc(C(=O)N4CC5(C=C(c6ccc(C(F)(F)F)cc6)C5)C4)ccc3C2=O)C(=O)N1 (stereo not drawn) [Example 209, 3-(1-oxo-5-(6-(4-(trifluoromethyl)phenyl)-2-azaspiro[3.3]hept-5-ene-2-carbonyl)isoindolin-2-yl)piperidine-2,6-dione]	–	–	< 10	< 100
> 1000	O=C1CCC(c2nc3ccc(C(=O)N4Cc5c(F)ccc(OC(F)(F)F)c5C4)cc3o2)C(=O)N1 (stereo not drawn) [Example 210, 3-(6-(4-fluoro-7-(trifluoromethoxy)isoindoline-2-carbonyl)benzo[d]oxazol-2-yl)piperidine-2,6-dione]	–	–	> 1000	–
> 1000	O=C1CCC(c2nc3ccc(C(=O)N4Cc5cccc(F)c5C45CC5)cc3o2)C(=O)N1 (stereo not drawn) [Example 211, 3-(6-(7′-fluorospiro[cyclopropane-1,1′-isoindoline]-2′-carbonyl)benzo[d]oxazol-2-yl)piperidine-2,6-dione]	–	–	100 to 1000	–
100 to 300	O=C1CCC(N2Cc3cc(C(=O)NC4CC5(C4)CC(c4ccc(F)c(F)c4)C5)ccc3C2=O)C(=O)N1 (stereo not drawn) [Example 217, N-(6-(3,4-difluorophenyl)spiro[3.3]heptan-2-yl)-2-(2,6-dioxopiperidin-3-yl)-1-oxoisoindoline-5-carboxamide]	–	–	10 to 100	–
< 100	O=C1CCC(N2Cc3cc(C(=O)NC4CC5(C4)CC(c4ccc(F)cc4F)C5)ccc3C2=O)C(=O)N1 (stereo not drawn) [Example 218, N-(6-(2,4-difluorophenyl)spiro[3.3]heptan-2-yl)-2-(2,6-dioxopiperidin-3-yl)-1-oxoisoindoline-5-carboxamide]	–	–	< 10	–
100 to 300	N#Cc1ccc(C2CC3(CC(NC(=O)c4ccc5c(c4)CN(C4CCC(=O)NC4=O)C5=O)C3)C2)cc1 (stereo not drawn) [Example 219, N-(6-(4-cyanophenyl)spiro[3.3]heptan-2-yl)-2-(2,6-dioxopiperidin-3-yl)-1-oxoisoindoline-5-carboxamide]	–	–	10 to 100	–
–	Cc1ccc(C2CC3(CC(NC(=O)c4ccc5c(c4)CN(C4CCC(=O)NC4=O)C5=O)C3)C2)cc1 (stereo not drawn) [Example 227, 2-(2,6-dioxopiperidin-3-yl)-1-oxo-N-(6-(p-tolyl)spiro[3.3]heptan-2-yl)isoindoline-5-carboxamide]	–	–	< 10	< 100
< 100	O=C1CCC(N2Cc3cc(C(=O)N4CC5(CC(c6ccc(C(F)(F)F)cc6)C5)C4)ccc3C2=O)C(=O)N1 (stereo not drawn) [Example 230, 3-(1-oxo-5-(6-(4-(trifluoromethyl)phenyl)-2-azaspiro[3.3]heptane-2-carbonyl)isoindolin-2-yl)piperidine-2,6-dione]	–	–	< 10	–
< 100	Cc1ccc(C2CC3(C2)CN(C(=O)c2ccc4c(c2)CN(C2CCC(=O)NC2=O)C4=O)C3)cc1 (stereo not drawn) [Example 231, 3-(1-oxo-5-(6-(p-tolyl)-2-azaspiro[3.3]heptane-2-carbonyl)isoindolin-2-yl)piperidine-2,6-dione]	–	–	< 10	–
–	O=C1CCC(N2Cc3cc(C(=O)N4CC5(C=C(c6ccc(F)cc6F)C5)C4)ccc3C2=O)C(=O)N1 (stereo not drawn) [Example 235]	–	–	< 10	< 100
–	Cc1ccc(C2=CC3(C2)CN(C(=O)c2ccc4c(c2)CN(C2CCC(=O)NC2=O)C4=O)C3)cc1 (stereo not drawn) [Example 236, 3-(1-oxo-5-(6-(p-tolyl)-2-azaspiro[3.3]hept-5-ene-2-carbonyl)isoindolin-2-yl)piperidine-2,6-dione]	–	–	< 10	< 100
–	O=C1CCC(N2Cc3cc(C(=O)N4CC5(C=C(c6ccc(C(F)(F)F)c(F)c6)C5)C4)ccc3C2=O)C(=O)N1 (stereo not drawn) [Example 240, 3-(5-(6-(3-fluoro-4-(trifluoromethyl)phenyl)-2-azaspiro[3.3]hept-5-ene-2-carbonyl)-1-oxoisoindolin-2-yl)piperidine-2,6-dione]	–	–	< 10	< 100
–	O=C1CCC(N2Cc3cc(C(=O)N4CC5(C=C(c6ccc(C(F)(F)F)cc6F)C5)C4)ccc3C2=O)C(=O)N1 (stereo not drawn) [Example 241, 3-(5-(6-(2-fluoro-4-(trifluoromethyl)phenyl)-2-azaspiro[3.3]hept-5-ene-2-carbonyl)-1-oxoisoindolin-2-yl)piperidine-2,6-dione]	–	–	10 to 100	< 100
100 to 300	O=C1CCC(N2Cc3cc(C(=O)NC4CC5(C=C(c6ccc(F)cc6F)C5)C4)c(F)cc3C2=O)C(=O)N1 (stereo not drawn) [Example 254, N-(6-(2,4-difluorophenyl)spiro[3.3]hept-5-en-2-yl)-2-(2,6-dioxopiperidin-3-yl)-6-fluoro-1-oxoisoindoline-5-carboxamide]	–	–	10 to 100	–
< 100	O=C1CCC(N2Cc3cc(C(=O)NC4CC5(C4)CC(c4ccc(F)cc4F)C5)c(F)cc3C2=O)C(=O)N1 (stereo not drawn) [Example 255, N-(6-(2,4-difluorophenyl)spiro[3.3]heptan-2-yl)-2-(2,6-dioxopiperidin-3-yl)-6-fluoro-1-oxoisoindoline-5-carboxamide]	–	–	10 to 100	–
100 to 300	O=C1CCC(N2Cc3cc(C(=O)NC4CC5(C4)CC(c4ccc(C(F)(F)F)cc4F)C5)ccc3C2=O)C(=O)N1 (stereo not drawn) [Example 258, 2-(2,6-dioxopiperidin-3-yl)-N-(6-(2-fluoro-4-(trifluoromethyl)phenyl)spiro[3.3]heptan-2-yl)-1-oxoisoindoline-5-carboxamide]	–	–	100 to 1000	–
–	O=C1CCC(N2Cc3cc(C(=O)N4Cc5c(Cl)ccc(C(F)(F)F)c5C4)ccc3C2=O)C(=O)N1 (stereo not drawn) [Example 261, 3-(5-(4-chloro-7-(trifluoromethyl)isoindoline-2-carbonyl)-1-oxoisoindolin-2-yl)piperidine-2,6-dione]	–	–	10 to 100	100 to 300
–	O=C1CCC(N2Cc3cc(C(=O)N4Cc5ccc(OC(F)(F)F)c(F)c5C4)ccc3C2=O)C(=O)N1 (stereo not drawn) [Example 263, 3-(5-(4-fluoro-5-(trifluoromethoxy)isoindoline-2-carbonyl)-1-oxoisoindolin-2-yl)piperidine-2,6-dione]	–	–	10 to 100	100 to 300
–	O=C1CCC(N2Cc3cc(C(=O)N4Cc5cc(F)cc(C(F)(F)F)c5C4)ccc3C2=O)C(=O)N1 (stereo not drawn) [Example 264, 3-(5-(6-fluoro-4-(trifluoromethyl)isoindoline-2-carbonyl)-1-oxoisoindolin-2-yl)piperidine-2,6-dione]	–	–	10 to 100	< 100

SMILES	DC50 [2, 5] [nM]	IC50 [1, 4] [nM]	IC50 ([1]; TABLE 2, MV-4-11 cells assumed, 44 hours) [nM]	IC50 [3] [nM]	DC50 [2, 6] [nM]
O=C1CCC(N2Cc3cc(C(=O)NC4CC5(C4)CC(c4ccc(C(F)(F)F)cc4)C5)ccc3C2=O)C(=O)N1 (stereo not drawn) [Example 226, 2-(2,6-dioxopiperidin-3-yl)-1-oxo-N-(6-(4-(trifluoromethyl)phenyl)spiro[3.3]heptan-2-yl)isoindoline-5-carboxamide]	100 to 300	–	–	10 to 100	–

Reference: patent US20260285872A1, “COMPOUNDS AND METHODS FOR DEGRADING GSPT1” (priority 2023, published 2026)
